# ChEMBL document CHEMBL1201862, “PubChem BioAssay data set” (2004)
#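 Five concentrations, 48 hours, 96-well plates. Abbreviation: GI50, concentration required for 50% inhibition of growth.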 Calls of active or inactive are those of the source. Rule as the data show it: active = GI50 up to about 1.1 µM and inactive = higher.
# Key:
# Experiment in all cases: NCI tumour cell line growth inhibition, 48 h
# CCRF-CEM = test system: CCRF-CEM
# NCI-H23 = test system: NCI-H23
# T47D = test system: T47D
# HT-29 = test system: HT-29
# EKVX = test system: EKVX
# SK-MEL-28 = test system: SK-MEL-28
# SN12C = test system: SN12C
# SF-268 = test system: SF-268
# SNB-75 = test system: SNB-75
# OVCAR-8 = test system: OVCAR-8
# 786-0 = test system: 786-0
# TK-10 = test system: TK-10
# MDA-MB-231 = test system: MDA-MB-231
# OVCAR-4 = test system: OVCAR-4
# PC-3 = test system: PC-3
# HL-60 = test system: HL-60
# IGROV-1 = test system: IGROV-1
# OVCAR-3 = test system: OVCAR-3
# CAKI-1 = test system: CAKI-1
# OVCAR-5 = test system: OVCAR-5
# NCI-H226 = test system: NCI-H226
# MOLT-4 = test system: MOLT-4
# BT-549 = test system: BT-549
# ACHN = test system: ACHN
# Hs-578T = test system: Hs-578T
# SF-295 = test system: SF-295
# SW-620 = test system: SW-620
# SK-MEL-5 = test system: SK-MEL-5
# SK-MEL-2 = test system: SK-MEL-2
# DU-145 = test system: DU-145
# MDA-MB-435 = test system: MDA-MB-435
# RPMI-8226 = test system: RPMI-8226
# Malme-3M = test system: Malme-3M
# K562 = test system: K562
# HOP-62 = test system: HOP-62
# HCT-116 = test system: HCT-116
# UACC-257 = test system: UACC-257
# LOX IMVI = test system: LOX IMVI
# MCF7 = test system: MCF7
# SK-OV-3 = test system: SK-OV-3
# UO-31 = test system: UO-31
# HCC 2998 = test system: HCC 2998
# NCI-H460 = test system: NCI-H460
# SR = test system: SR
# UACC-62 = test system: UACC-62
# COLO 205 = test system: COLO 205
# HOP-92 = test system: HOP-92
# SNB-19 = test system: SNB-19
# A549 = test system: A549
# RXF 393 = test system: RXF 393
# MDA-N = test system: MDA-N
# KM12 = test system: KM12
# NCI/ADR-RES = test system: NCI/ADR-RES
# SF-539 = test system: SF-539
# M14 = test system: M14
# U-251 = test system: U-251
# HCT-15 = test system: HCT-15
# A498 = test system: A498
smiles,measurement,setting,value
CC(C)NC(=O)OCCN=C1c2ccccc2CCc2ccccc21,GI50,CCRF-CEM,19.6 µM (inactive)
same,GI50,NCI-H23,54.3 µM (inactive)
same,GI50,T47D,21 µM (inactive)
same,GI50,HT-29,21.4 µM (inactive)
same,GI50,EKVX,23.8 µM (inactive)
same,GI50,SK-MEL-28,19.7 µM (inactive)
same,GI50,SN12C,18.8 µM (inactive)
same,GI50,SF-268,26.2 µM (inactive)
same,GI50,SNB-75,24.3 µM (inactive)
same,GI50,OVCAR-8,27 µM (inactive)
same,GI50,786-0,43.6 µM (inactive)
same,GI50,TK-10,26.1 µM (inactive)
same,GI50,MDA-MB-231,25.2 µM (inactive)
same,GI50,OVCAR-4,12.2 µM (inactive)
same,GI50,PC-3,20.5 µM (inactive)
same,GI50,HL-60,19.2 µM (inactive)
same,GI50,IGROV-1,35.1 µM (inactive)
same,GI50,OVCAR-3,25 µM (inactive)
same,GI50,CAKI-1,24.7 µM (inactive)
same,GI50,OVCAR-5,29.4 µM (inactive)
same,GI50,NCI-H226,25.6 µM (inactive)
same,GI50,MOLT-4,14.8 µM (inactive)
same,GI50,BT-549,13.3 µM (inactive)
same,GI50,ACHN,27.2 µM (inactive)
same,GI50,Hs-578T,24 µM (inactive)
same,GI50,SF-295,14.7 µM (inactive)
same,GI50,SW-620,28.3 µM (inactive)
same,GI50,SK-MEL-5,13.9 µM (inactive)
same,GI50,SK-MEL-2,16.4 µM (inactive)
same,GI50,DU-145,25.5 µM (inactive)
same,GI50,MDA-MB-435,30.6 µM (inactive)
same,GI50,RPMI-8226,18.2 µM (inactive)
same,GI50,Malme-3M,15.5 µM (inactive)
same,GI50,K562,21.5 µM (inactive)
same,GI50,HOP-62,21 µM (inactive)
same,GI50,HCT-116,21.9 µM (inactive)
same,GI50,UACC-257,22.9 µM (inactive)
same,GI50,LOX IMVI,26.6 µM (inactive)
same,GI50,MCF7,22.6 µM (inactive)
same,GI50,SK-OV-3,24.8 µM (inactive)
same,GI50,UO-31,23.1 µM (inactive)
same,GI50,HCC 2998,18.4 µM (inactive)
same,GI50,NCI-H460,28.2 µM (inactive)
same,GI50,SR,18.1 µM (inactive)
same,GI50,UACC-62,16.1 µM (inactive)
same,GI50,COLO 205,19.1 µM (inactive)
same,GI50,HOP-92,24.5 µM (inactive)
same,GI50,SNB-19,20.9 µM (inactive)
same,GI50,A549,22.8 µM (inactive)
same,GI50,RXF 393,39.7 µM (inactive)
same,GI50,MDA-N,18.7 µM (inactive)
same,GI50,KM12,37.2 µM (inactive)
same,GI50,NCI/ADR-RES,30.3 µM (inactive)
same,GI50,SF-539,22.3 µM (inactive)
same,GI50,M14,20.3 µM (inactive)
same,GI50,U-251,23.8 µM (inactive)
same,GI50,HCT-15,24.7 µM
COP(=O)(OC)C(NC=O)P(=O)(OC)OC,GI50,CCRF-CEM,> 100 µM (inactive)
same,GI50,NCI-H23,> 100 µM (inactive)
same,GI50,T47D,> 100 µM (inactive)
same,GI50,HT-29,> 100 µM (inactive)
same,GI50,EKVX,> 100 µM (inactive)
same,GI50,SK-MEL-28,> 100 µM (inactive)
same,GI50,SN12C,> 100 µM (inactive)
same,GI50,SF-268,> 100 µM (inactive)
same,GI50,OVCAR-8,> 100 µM (inactive)
same,GI50,786-0,> 100 µM (inactive)
same,GI50,TK-10,> 100 µM (inactive)
same,GI50,MDA-MB-231,> 100 µM (inactive)
same,GI50,OVCAR-4,> 100 µM (inactive)
same,GI50,PC-3,> 100 µM (inactive)
same,GI50,HL-60,> 100 µM (inactive)
same,GI50,IGROV-1,> 100 µM (inactive)
same,GI50,OVCAR-3,> 100 µM (inactive)
same,GI50,CAKI-1,> 100 µM (inactive)
same,GI50,NCI-H226,> 100 µM (inactive)
same,GI50,MOLT-4,> 100 µM (inactive)
same,GI50,BT-549,> 100 µM (inactive)
same,GI50,ACHN,> 100 µM (inactive)
same,GI50,Hs-578T,> 100 µM (inactive)
same,GI50,SF-295,> 100 µM (inactive)
same,GI50,SW-620,> 100 µM (inactive)
same,GI50,SK-MEL-5,> 100 µM (inactive)
same,GI50,DU-145,> 100 µM (inactive)
same,GI50,MDA-MB-435,> 100 µM (inactive)
same,GI50,RPMI-8226,> 100 µM (inactive)
same,GI50,Malme-3M,> 100 µM (inactive)
same,GI50,K562,> 100 µM (inactive)
same,GI50,HOP-62,> 100 µM (inactive)
same,GI50,HCT-116,> 100 µM (inactive)
same,GI50,LOX IMVI,> 100 µM (inactive)
same,GI50,MCF7,> 100 µM (inactive)
same,GI50,SK-OV-3,> 100 µM (inactive)
same,GI50,UO-31,> 100 µM (inactive)
same,GI50,HCC 2998,> 100 µM (inactive)
same,GI50,NCI-H460,> 100 µM (inactive)
same,GI50,SR,> 100 µM (inactive)
same,GI50,UACC-62,> 100 µM (inactive)
same,GI50,COLO 205,> 100 µM (inactive)
same,GI50,HOP-92,> 100 µM (inactive)
same,GI50,SNB-19,> 100 µM (inactive)
same,GI50,A549,> 100 µM (inactive)
same,GI50,RXF 393,> 100 µM (inactive)
same,GI50,MDA-N,> 100 µM (inactive)
same,GI50,NCI/ADR-RES,> 100 µM (inactive)
same,GI50,SF-539,> 100 µM (inactive)
same,GI50,M14,> 100 µM (inactive)
same,GI50,U-251,> 100 µM (inactive)
same,GI50,A498,> 100 µM (inactive)
same,GI50,HCT-15,> 100 µM
